Experimental findings from patent US9232799B2, “N-[(het)arylethyl)] pyrazole(thio)carboxamides and their heterosubstituted analogues” (BAYER INTELLECTUAL PROPERTY GMBH, priority 2010, dated 2016) are described below.

Where “and” joins values, the source holds several entries; their conditions need not be identical. Identical values can stand only once.

Data set [1] is described as follows: logP by HPLC on reversed-phase column (C 18), EEC Directive 79/831 Annex V.A8. In kind it is physicochemical. As to the method: In table 1, the logP values were determined in accordance with EEC Directive 79/831 Annex V.A8 by HPLC (High Performance Liquid Chromatography) on a reversed-phase column (C 18), using the method described below: Temperature: 40° C.; […]

Data set [2] deals with Sphaerotheca fuliginea. Description: In vivo preventive test on Sphaerotheca fuliginea (cucumber). The conditions noted are these: 500 ppm of active ingredient, evaluated 7 days after inoculation. The source says: One day after this treatment, the plants are inoculated with an aqueous spore suspension of Sphaerotheca fuliginea.
Data set [3] has as its system Alternaria solani. Put plainly: In vivo preventive test on Alternaria solani (tomato). The conditions noted are these: 500 ppm of active ingredient, evaluated 7 days after inoculation. The text has this:
One day after this treatment, the plants are inoculated with an aqueous spore suspension of Alternaria solani.

Data set [4] deals with Pyrenophora teres. Put plainly: In vivo preventive test on Pyrenophora teres (barley). Conditions: 500 ppm of active ingredient, evaluated 7-9 days after inoculation. The text has this: One day after this treatment, the plants are inoculated with an aqueous spore suspension of Pyrenophora teres.
In data set [5] the test system is Puccinia triticina. Put plainly: In vivo preventive test on Puccinia triticina (wheat). The conditions noted are these: dose 500 ppm of active ingredient, evaluated 8 days after inoculation.
Data set [6] concerns aflatoxines production. Put plainly: microbe, parasite or virus in culture. In kind it is cell-based, Aspergillus parasiticus.
For data set [7], the system named is Fusarium graminearum. Description: microbe, parasite or virus in culture. Type of data set: cell-based.
The test system of data set [8] is Botrytis cinerea. Put plainly: In vivo preventive test on Botrytis cinerea (beans). The conditions noted are these: preventive, beans, lesion size 2 days after inoculation; for pest or weed control at 500 ppm: Botrytis cinerea, 48 h, 500 ppm of active ingredient, read-out: Efficacy. The text has this:
To test for preventive activity, young plants are sprayed with the preparation of active compound. After the spray coating has dried on, 2 small pieces of agar covered with growth of Botrytis cinerea are placed on each leaf.

The subject of data set [9] is Septoria tritici. Put plainly: In vivo preventive test on Septoria tritici (wheat). The conditions noted are these: 500 ppm of active ingredient, evaluated 21 days after inoculation. The text has this:
(§1) To test for preventive activity, young plants are sprayed with the preparation of active compound or active compound combination at the stated rate of application.

Data set [10] concerns Blumeria graminis f.sp. hordei. Put plainly: In vivo preventive test on Blumeria graminis (barley). The conditions noted are these: 500 ppm of active ingredient, evaluated 7 days after inoculation.
Text: as §1

Data set [11] deals with Fusarium nivale (var. majus). Description: In vivo preventive test on Fusarium nivale (wheat). The conditions noted are these: 500 ppm of active ingredient, evaluated 5 days after inoculation.
Text: as §1

The subject of data set [12] is Leptosphaeria nodorum. Description: In vivo preventive test on Leptosphaeria nodorum (wheat). The conditions noted are these: 500 ppm of active ingredient, evaluated 7-9 days after inoculation. The text has this: One day after this treatment, the plants are inoculated with an aqueous spore suspension of Leptosphaeria nodorum.
The test system of data set [13] is Venturia inaequalis. Description: In vivo preventive test on Venturia inaequalis (apple scab). Conditions: 100 ppm of active ingredient, evaluated 10 days after inoculation.

For `CC(Cc1cc(Cl)ccc1Cl)NC(=O)c1c(C(F)F)nn(C)c1Cl` (stereo not shown) [Example 93], the logP (usually a log measure of how a compound divides between an organic and an aqueous phase) in [1] was 3.53. For the same compound, the Efficacy in [2] is given as 95%; in data set [3] it was 100%; in data set [4], 100%; in data set [5], 70%. In data set [6], the “% Inhibition of Aflatoxin at 50 μM” value came out at 100%. For the same compound, in [7], the “% Inhibition of fungal growth at 50 μM” value is listed as 100%.
Take `CC(Cc1ccccc1Cl)NC(=O)c1c(C(F)F)nn(C)c1Cl` (stereo not shown) [Example 33]: the logP in data set [1] is listed as 3.15. Further, the Efficacy was 93% in data set [2], 100% in [3], 100% in [4] and 80% in data set [5]. Further, the “% Inhibition of Aflatoxin at 50 μM” value in [6] turned out to be 100%. For the same compound, in data set [7], the “% Inhibition of fungal growth at 50 μM” value is 100%.
For `Cc1nn(C)c(F)c1C(=O)N(C(C)Cc1ncc(C(F)(F)F)cc1Cl)C1CC1` (stereo not shown) [compound CMP5, N-{1-[3-chloro-5-(trifluoromethyl)pyridin-2-yl]propan-2-yl}-N-cyclopropyl-5-fluoro-1,3-dimethyl-1H-pyrazole-4-carboxamide, reference compound], in [8], the pest or weed control at 500 ppm is 0%. In [5], this compound showed an Efficacy of 11%.
`CC(Cc1ccc(Oc2ccccc2)cc1)NC(=O)c1c(C(F)F)nn(C)c1F` (stereo not shown) [Example 151] showed a logP in data set [1] of 3.63. In addition, the Efficacy in data set [2] is 93%; in data set [3] it was 95%; in data set [4] it was 100%; in data set [9] it was 100%; in [10], 100%; in data set [11], 100%. The same compound came in with an Efficacy in data set [12] of 70%. Further, the “% Inhibition of Aflatoxin at 50 μM” value in data set [6] is listed as 100%. In addition, the “% Inhibition of fungal growth at 50 μM” value in data set [7] is 94%.
Regarding `CC(Cc1ccc(Cl)cc1Cl)NC(=O)c1c(C(F)F)nn(C)c1F` (stereo not shown) [Example 67], in data set [1], the logP was 3.46. Moreover, the Efficacy in [2] turned out to be 100%; in data set [3], 100%; in data set [4] it was 100%; in [13], 100%; in data set [12], 90%; in [8] (100 ppm of active ingredient), 89%. The “% Inhibition of Aflatoxin at 50 μM” value in [6] is recorded as 100%. In addition, the “% Inhibition of fungal growth at 50 μM” value in data set [7] came to 100%.
On to `Cn1nc(C(F)F)c(C(=O)NC(C)(C)C(=O)c2ncc(C(F)(F)F)cc2Cl)c1F` [Example 194, N-{1-[3-chloro-5-(trifluoromethyl)pyridin-2-yl]-2-methyl-1-oxopropan-2-yl}-3-(difluoromethyl)-5-fluoro-1-methyl-1H-pyrazole-4-carboxamide], for which the chromatographic logP (as a rule, lipophilicity estimated from chromatographic retention) in [1] (logP) is 3.23. For the same compound, the Efficacy was 98% in [2]; 100% in data set [3]; 100% in data set [4]; 100% in data set [9]; 100% in [10]; 100% in data set [11]. In data set [12], this compound came in with an Efficacy of 90%. In addition, the inhibition (usually how much of the control response was suppressed) at 50 µM in [6] (Aspergillus parasiticus, 168 h, read-out: % Inhibition of Aflatoxin at 50 μM) is 100%; in [7] (Fusarium graminearum, 168 h, read-out: % Inhibition of fungal growth at 50 μM), 100%.
In turn, `Cn1nc(C(F)F)c(C(=O)NC[Si](C)(C)c2ccc(Cl)cc2Cl)c1F` [Example 240] showed a logP in data set [1] of 4.06. In addition, the Efficacy is 100% in [3]; 100% and 95% in data set [4]; 95% in data set [12]; 100% in data set [5]. Besides, in data set [6], the “% Inhibition of Aflatoxin at 50 μM” value is given as 100%. For the same compound, the “% Inhibition of fungal growth at 50 μM” value in [7] was found to be 84%.
`CC(Cc1cccc(Oc2ccccc2)c1)NC(=O)c1c(C(F)F)nn(C)c1Cl` (stereo not shown) [Example 147] gave a logP in [1] of 3.80. Further, the Efficacy is given as 100% in data set [3], 100% in data set [4] and 70% in [5]. The “% Inhibition of Aflatoxin at 50 μM” value in data set [6] was 93%. In data set [7], the “% Inhibition of fungal growth at 50 μM” value is 77%.
In turn, `Cn1nc(C(F)F)c(C(=O)NC[Si](C)(C)c2ccccc2Cl)c1F` [Example 233] gave a logP in [1] of 3.48. Besides, the Efficacy turned out to be 95% in data set [3]; 100% in [4]; 90% in data set [9]; 80% in data set [12]; 95% in data set [5]. Also, the “% Inhibition of Aflatoxin at 50 μM” value in data set [6] was 88%. In [7], the “% Inhibition of fungal growth at 50 μM” value is 76%.
In data set [1], `Cn1nc(C(F)F)c(C(=O)N(CC(F)(F)c2cc(Cl)ccc2Cl)C2CC2)c1F` [Example 99] returned a logP of 3.85. For the same compound, the Efficacy in data set [2] is 98%; in data set [3] it was 95%; in data set [4], 100%; in data set [9] it was 100%; in data set [10] it was 89%; in [11], 92%. The same compound gave an Efficacy in data set [12] of 95%.
As to `Cn1nc(C(F)F)c(C(=O)N(C[Si](C)(C)c2ccc3ccccc3c2)C2CC2)c1F` [Example 245], the logP in data set [1] is reported as 4.36. In addition, the Efficacy in data set [2] was 100%; in data set [3] it was 100%; in data set [4], 100%; in data set [12], 100%; in [5], 95%. Also, the “% Inhibition of Aflatoxin at 50 μM” value in data set [6] is on record as 100%. For the same compound, in [7], the “% Inhibition of fungal growth at 50 μM” value is 100%.
In [1], `Cn1nc(C(F)F)c(C(=O)NCC(C)(C)c2ccc(Cl)cc2Cl)c1Cl` [Example 88] registered a logP of 4.03. Moreover, the Efficacy amounted to 94% in data set [2]; 100% in data set [3]; 100% in data set [4]; 90% in data set [9]; 80% in data set [10]; 88% in data set [11]. This compound had an Efficacy in data set [12] of 90%. The “% Inhibition of Aflatoxin at 50 μM” value in [6] came out at 100%. Also, the “% Inhibition of fungal growth at 50 μM” value in data set [7] is reported as 86%.
`CN(CCc1ccc(F)cc1)C(=O)c1c(C(F)F)nn(C)c1Cl` [Example 24] returned a lipophilicity (logP) in data set [1] of 2.66. For the same compound, the figures for the Efficacy in [3], in [4] and in data set [5] were 100%, 95% and 80%, respectively. Moreover, the “% Inhibition of Aflatoxin at 50 μM” value in data set [6] came to 100%. Besides, in [7], the “% Inhibition of fungal growth at 50 μM” value is 88%.
For the compound `CC(Cc1cc(Cl)cc(Cl)c1)NC(=O)c1c(C(F)F)nn(C)c1Cl` (stereo not shown) [Example 104], in data set [1], the logP is recorded as 3.67. For the same compound, the Efficacy came out at 86% in data set [2], 95% in [3], 100% in data set [4] and 70% in [5]. Also, in [6], the “% Inhibition of Aflatoxin at 50 μM” value came out at 100%. The “% Inhibition of fungal growth at 50 μM” value in data set [7] worked out at 98%.
Take `CC(Cc1ncc(C(F)(F)F)cc1Cl)N(C(=O)c1c(C(F)F)nn(C)c1Cl)C1CC1` (stereo not shown) [Example 189]: in data set [1], the logP turned out to be 3.96. In addition, the Efficacy in data set [2] was 95%; in data set [3], 100%; in data set [4], 95%; in data set [9], 70%; in [10], 100%; in data set [11] it was 100%. The Efficacy in data set [5] stood at 80%. Further, in [6], the “% Inhibition of Aflatoxin at 50 μM” value worked out at 100%. For the same compound, the “% Inhibition of fungal growth at 50 μM” value in data set [7] was found to be 90%.
`CC(Cc1ncc(C(F)(F)F)cc1Cl)N(C(=O)c1cn(C)nc1C(F)F)C1CC1` (stereo not shown) [compound CMP4, N-{1-[3-chloro-5-(trifluoromethyl)pyridin-2-yl]propan-2-yl}-N-cyclopropyl-3-(difluoromethyl)-1-methyl-1H-pyrazole-4-carboxamide, reference compound]: the pest or weed control at 500 ppm in data set [8] was found to be 0%. The compound further showed an Efficacy in data set [5] of 11%.
Compound `CN(C[Si](C)(C)c1ccccc1)C(=O)c1c(C(F)F)nn(C)c1F` [Example 230] displayed a logP in data set [1] of 3.23. Further, the Efficacy in data set [3] is recorded as 100%; in data set [4] it was 100%; in data set [9], 100%; in data set [10] it was 100%; in data set [11], 83%; in data set [12] it was 80%. In addition, the Efficacy in data set [5] is listed as 95%. In addition, the “% Inhibition of Aflatoxin at 50 μM” value in data set [6] is given as 100%. The “% Inhibition of fungal growth at 50 μM” value in [7] turned out to be 100%.
